These results are taken from patent publication US4360511A, “Amines useful as brain imaging agents” (Medi-Physics, Inc., priority 1980, dated 1982).

Where two headings read alike, the source gives them in different places.

This data set can be described thus: Bioassay: distribution of I-123-labeled compounds in organs of rats after tail vein injection (percent dose/gram, brain/blood ratio). It is filed as in vivo, Female Sprague-Dawley rats. The following applies: for Brain/Blood Ratio 5 min. / tissue uptake at 5 min: 5 minutes post-injection; for Brain/Blood Ratio 60 min. / tissue uptake at 1 h: 60 minutes post-injection; for tissue uptake at 5 min / tissue uptake at 1 h: rat, iv, 0.05 to 1.0 mCi, two rats. The method, then:
Female Sprague-Dawley rats weighing approximately 150 g were anesthetized with sodium pentobarbital and were injected in a tail vein with from 0.05 to 1.0 mCi (in a volume of 0.2 to 0.5 ml) of the I-123-labeled compound. Two specimens were utilized for each test.
Two animals each were sacrificed at 5 minutes and 60 minutes post-injection, the tails discarded and the amount of activity in various organs determined. Each organ was counted at a standardized geometry with a sodium iodide crystal scintillation counter adjusted for the 159 keV emission of I-123. The organs were also weighed to one thousandth of a gram and the activity calculated as a percent of administered dose per gram of organ weight.
The ratio of brain-to-blood activity was calculated as a percent of administered dose per gram.

Setting [1] is: blood, read-out: Percent Dose/Gram Blood 5 min.
Where [2] appears, read: blood, read-out: Percent Dose/Gram Blood 60 min.
[3] abbreviates: brain, read-out: Percent Dose/Gram Brain 5 min.
Setting [4] is: brain, read-out: Percent Dose/Gram Brain 60 min.
Setting [5] is: heart, read-out: Percent Dose/Gram Heart 5 min.
Setting [6] is: heart, read-out: Percent Dose/Gram Heart 60 min.

Take `CC1CCCC(C)N1Cc1ccccc1[123I]` (centres unmarked) [I--123-N--o-iodobenzyl-2,6-dimethylpiperidine]: the “Brain/Blood Ratio 5 min.” value is on record as 3.32 and the “Brain/Blood Ratio 60 min.” value is 1.59. For the same compound, the tissue uptake at 5 min under setting [1] turned out to be 0.31 %ID/g. Further, under setting [2], the tissue uptake at 1 h was found to be 0.21 %ID/g. Besides, the tissue uptake at 5 min under setting [3] was 1.01 %ID/g. Moreover, the tissue uptake at 1 h under setting [4] was determined as 0.32 %ID/g. Further, the tissue uptake at 5 min under setting [5] stood at 1.14 %ID/g. The tissue uptake at 1 h under setting [6] was found to be 0.44 %ID/g.

In the case of `[123I]c1ccccc1CNc1ccccc1` [I--123-N--o-iodobenzylaniline], the “Brain/Blood Ratio 5 min.” value was 1.70 and the “Brain/Blood Ratio 60 min.” value was determined as 0.41. Also, the tissue uptake at 5 min under setting [1] worked out at 0.61 %ID/g. Moreover, under setting [2], the tissue uptake at 1 h was 0.41 %ID/g. Moreover, the tissue uptake at 5 min under setting [3] turned out to be 1.02 %ID/g. The tissue uptake at 1 h under setting [4] was 0.17 %ID/g. In addition, the tissue uptake at 5 min under setting [5] stood at 0.83 %ID/g. Moreover, the tissue uptake at 1 h under setting [6] stood at 0.31 %ID/g.

For the compound `[123I]c1ccccc1CN1CCCCC1` [I--123-N--o-iodobenzylpiperidine], the “Brain/Blood Ratio 5 min.” value stood at 1.56 and the “Brain/Blood Ratio 60 min.” value is reported as 0.91. Further, the tissue uptake at 5 min under setting [1] turned out to be 0.6 %ID/g. Moreover, the tissue uptake at 1 h under setting [2] is 0.32 %ID/g. Further, the tissue uptake at 5 min under setting [3] stood at 0.93 %ID/g. Further, the tissue uptake at 1 h under setting [4] is 0.29 %ID/g. Also, under setting [5], the tissue uptake at 5 min amounted to 0.56 %ID/g. For the same compound, under setting [6], the tissue uptake at 1 h amounted to 0.38 %ID/g.

Regarding `CCCNCCc1ccccc1[123I]` [I--123-N--propyl-o-iodo-β-phenethylamine], the “Brain/Blood Ratio 5 min.” value is given as 4.03 and the “Brain/Blood Ratio 60 min.” value is 2.20. Under setting [1], the tissue uptake at 5 min was determined as 0.29 %ID/g. The tissue uptake at 1 h under setting [2] is 0.2 %ID/g. Further, the tissue uptake at 5 min under setting [3] was 1.17 %ID/g. For the same compound, under setting [4], the tissue uptake at 1 h is 0.44 %ID/g. For the same compound, the tissue uptake at 5 min under setting [5] came to 1.54 %ID/g. The tissue uptake at 1 h under setting [6] is 0.23 %ID/g.

As to `CCCNCc1ccccc1[123I]` [I--123-N--propyl-o-iodobenzylamine], the “Brain/Blood Ratio 5 min.” value amounted to 3.81 and the “Brain/Blood Ratio 60 min.” value is reported as 1.84. Moreover, the tissue uptake at 5 min under setting [1] turned out to be 0.27 %ID/g. Also, the tissue uptake at 1 h under setting [2] turned out to be 0.32 %ID/g. In addition, under setting [3], the tissue uptake at 5 min worked out at 1.03 %ID/g. Further, the tissue uptake at 1 h under setting [4] came to 0.59 %ID/g. The tissue uptake at 5 min under setting [5] was 0.77 %ID/g. For the same compound, under setting [6], the tissue uptake at 1 h was 0.59 %ID/g.

For the compound `CC(C)(C)NCc1ccccc1[123I]` [I--123-N--t-butyl-o-iodobenzylamine, I-123-N-t-butyl-o-iodobenzylamine], the “Brain/Blood Ratio 5 min.” value came to 8.85 and the “Brain/Blood Ratio 60 min.” value is 8.16. For the same compound, the tissue uptake at 5 min under setting [1] was 0.17 %ID/g. Further, under setting [2], the tissue uptake at 1 h was 0.11 %ID/g. The tissue uptake at 5 min under setting [3] came to 1.49 %ID/g. Moreover, the tissue uptake at 1 h under setting [4] is 0.89 %ID/g. For the same compound, the tissue uptake at 5 min under setting [5] was 1.04 %ID/g. Moreover, the tissue uptake at 1 h under setting [6] worked out at 0.49 %ID/g.

For the compound `CC(C)N(CCc1ccccc1)CCc1ccccc1[123I]` [I--123-N--β-phenethyl-N--isopropyl-o-iodo-β-phenethylamine], the “Brain/Blood Ratio 5 min.” value amounted to 1.83. Under setting [1], the tissue uptake at 5 min came to 0.29 %ID/g. Besides, the tissue uptake at 5 min under setting [3] came out at 0.53 %ID/g. The tissue uptake at 5 min under setting [5] was 2.01 %ID/g.

Take `[123I]c1ccccc1CCNCCc1ccccc1` [I--123-N--β-phenethyl-o-iodo-β-phenethylamine]: the “Brain/Blood Ratio 5 min.” value amounted to 4.77 and the “Brain/Blood Ratio 60 min.” value worked out at 5.17. The tissue uptake at 5 min under setting [1] came to 0.16 %ID/g. The tissue uptake at 1 h under setting [2] was determined as 0.09 %ID/g. Besides, the tissue uptake at 5 min under setting [3] stood at 0.74 %ID/g. In addition, the tissue uptake at 1 h under setting [4] worked out at 0.48 %ID/g. Under setting [5], the tissue uptake at 5 min turned out to be 1.56 %ID/g. Under setting [6], the tissue uptake at 1 h was found to be 0.26 %ID/g.

On to `[123I]c1ccccc1NCCc1ccccc1` [I--123-N--β-phenethyl-o-iodoaniline], for which the “Brain/Blood Ratio 5 min.” value worked out at 1.24 and the “Brain/Blood Ratio 60 min.” value is listed as 0.33. Under setting [1], the tissue uptake at 5 min worked out at 1.04 %ID/g. Also, the tissue uptake at 1 h under setting [2] was 0.48 %ID/g. Moreover, the tissue uptake at 5 min under setting [3] amounted to 1.29 %ID/g. Further, the tissue uptake at 1 h under setting [4] is 0.16 %ID/g. In addition, the tissue uptake at 5 min under setting [5] was 1.16 %ID/g. Besides, the tissue uptake at 1 h under setting [6] was 0.33 %ID/g.
